Data on one compound can be found in ChEMBL document CHEMBL6153101, “Chamilactones A and B, Sesquiterpenes from the Endophytic Fungus Chaetomium nigricolor F5” (J Nat Prod, 2025).

Active and inactive are the calls of the source. The rule behind the calls is not given here.

Holding throughout (type): functional, cell-based
Assay [1] concerns BV-2. Kind of assay: Anti-neuroinflammatory effect in mouse BV-2 cells assessed as decrease in LPS-mediated TLR4 expression at 10 to 40 uM preincubated for 2 hrs followed by stimulation with LPS for 24 hrs by Western blot analysis. The following applies: dose 10-40 µM, time 26.0 hrs.
Assay [2] has as its system BV-2. As to the kind of experiment: Anti-neuroinflammatory effect in mouse BV-2 cells assessed as decrease in LPS-mediated p-p65 expression preincubated for 2 hrs followed by stimulation with LPS for 24 hrs by Western blot analysis. The following applies: dose 10-40 µM, time 26.0 hrs. In general terms: In western blotting, separated proteins are transferred to a membrane and probed.

Assay [3] has as its system BV-2. As to the kind of experiment: Anti-neuroinflammatory effect in mouse BV-2 cells assessed as suppression of LPS-mediated TNF-alpha secretion preincubated for 2 hrs followed by stimulation with LPS for 24 hrs by ELISA assay. The following applies: dose 10-40 µM, time 26.0 hrs.
In assay [4] the test system is BV-2. As to the kind of experiment: Anti-neuroinflammatory effect in mouse BV-2 cells assessed as inhibition of LPS-mediated nuclear translocation of NF-kappaB p65 at 20 to 40 uM preincubated for 2 h followed by stimulation with LPS for 1 h by immunocytochemical analysis. To be noted: dose 20-40 µM, time 3.0 hrs.
The test system of assay [5] is BV-2. Kind of assay: Anti-neuroinflammatory effect in mouse BV-2 cells assessed as suppression of LPS-mediated IL-6 secretion preincubated for 2 hrs followed by stimulation with LPS for 24 hrs by ELISA assay. To be noted: dose 10-40 µM, time 26.0 hrs. In general terms: An ELISA detects its analyte on a solid surface through an enzyme-linked reagent.

Turning to `Cc1c2c(cc3c1CCOC3=O)CC(C)(C)C2`, the outcome with BV-2 [1] was Active. The results for the Activity entry in the assay on BV-2 [2], with BV-2 [3] and with BV-2 [5] were “Dose-dependent-effect”, “Dose-dependent-effect; Exhibited Most Potent Effect” and “Dose-dependent-effect; Exhibited Most Potent Effect”, respectively. Besides, the inhibition result in the assay on BV-2 [4] is “Active”.
